Assay results from ChEMBL document CHEMBL1156542, “Facile radiosynthesis of fluorine-18 labeled beta-blockers. Synthesis, radiolabeling, and ex vivo biodistribution of [18F]-(2S and 2R)-1-(1-fluoropropan-2-ylamino)-3-(m-tolyloxy)propan-2-ol” (J Med Chem, 2008).
pKd: −log10 of the molar value.

Key:
[1] = Lipophilicity, log P at pH 7.4; format: physicochemical; settings: buffer
Hypothalamus [2] = test: Biodistribution in Sprague-Dawley rat hypothalamus at 70 uCi, iv after 15 mins; format: ADME, organism-based; settings: in vivo, 0.25 h
Plasma [3] = test: Biodistribution in Sprague-Dawley rat plasma at 70 uCi, iv after 15 mins; format: ADME, organism-based; settings: in vivo, 0.25 h
Heart [4] = test: Biodistribution in Sprague-Dawley rat heart at 70 uCi, iv after 5 mins; format: ADME, organism-based; settings: in vivo
Striatum [5] = test: Biodistribution in Sprague-Dawley rat striatum at 70 uCi, iv after 30 mins; format: ADME, organism-based; settings: in vivo, 0.5 h
Thalamus [6] = test: Biodistribution in Sprague-Dawley rat thalamus at 70 uCi, iv after 15 mins; format: ADME, organism-based; settings: in vivo, 0.25 h
Plasma [7] = test: Biodistribution in Sprague-Dawley rat plasma at 70 uCi, iv after 30 mins; format: ADME, organism-based; settings: in vivo, 0.5 h
Plasma [8] = test: Biodistribution in Sprague-Dawley rat plasma at 70 uCi, iv after 60 mins; format: ADME, organism-based; settings: in vivo, 1 h
Hypothalamus [9] = test: Biodistribution in Sprague-Dawley rat hypothalamus at 70 uCi, iv after 60 mins; format: ADME, organism-based; settings: in vivo, 1 h
Cortex [10] = test: Biodistribution in Sprague-Dawley rat rest of cortex at 70 uCi, iv after 30 mins; format: ADME, organism-based; settings: in vivo, 0.5 h
Cerebellum [11] = test: Biodistribution in Sprague-Dawley rat cerebellum at 70 uCi, iv after 5 mins; format: ADME, organism-based; settings: in vivo
Cerebellum [12] = test: Biodistribution in Sprague-Dawley rat cerebellum at 70 uCi, iv after 60 mins; format: ADME, organism-based; settings: in vivo, 1 h
Hippocampus [13] = test: Biodistribution in Sprague-Dawley rat hippocampus at 70 uCi, iv after 30 mins; format: ADME, organism-based; settings: in vivo, 0.5 h
Cortex [14] = test: Biodistribution in Sprague-Dawley rat rest of cortex at 70 uCi, iv after 5 mins; format: ADME, organism-based; settings: in vivo
Cerebellum [15] = test: Biodistribution in Sprague-Dawley rat cerebellum at 70 uCi, iv after 30 mins; format: ADME, organism-based; settings: in vivo, 0.5 h
Plasma [16] = test: Biodistribution in Sprague-Dawley rat plasma at 70 uCi, iv after 5 mins; format: ADME, organism-based; settings: in vivo
Heart [17] = test: Biodistribution in Sprague-Dawley rat heart at 70 uCi, iv after 30 mins; format: ADME, organism-based; settings: in vivo, 0.5 h
Striatum [18] = test: Biodistribution in Sprague-Dawley rat striatum at 70 uCi, iv after 15 mins; format: ADME, organism-based; settings: in vivo, 0.25 h
[19] = Biodistribution in Sprague-Dawley rat frontal cortex at 70 uCi, iv after 15 mins; format: ADME, organism-based; settings: in vivo, 0.25 h
[20] = Biodistribution in Sprague-Dawley rat frontal cortex at 70 uCi, iv after 30 mins; format: ADME, organism-based; settings: in vivo, 0.5 h
Brain [21] = test: Biodistribution in Sprague-Dawley rat rest of brain at 70 uCi, iv after 15 mins; format: ADME, organism-based; settings: in vivo, 0.25 h
[22] = Biodistribution in Sprague-Dawley rat frontal cortex at 70 uCi, iv after 5 mins; format: ADME, organism-based; settings: in vivo
Brain [23] = test: Biodistribution in Sprague-Dawley rat rest of brain at 70 uCi, iv after 60 mins; format: ADME, organism-based; settings: in vivo, 1 h
Thalamus [24] = test: Biodistribution in Sprague-Dawley rat thalamus at 70 uCi, iv after 5 mins; format: ADME, organism-based; settings: in vivo
Striatum [25] = test: Biodistribution in Sprague-Dawley rat striatum at 70 uCi, iv after 60 mins; format: ADME, organism-based; settings: in vivo, 1 h
Hippocampus [26] = test: Biodistribution in Sprague-Dawley rat hippocampus at 70 uCi, iv after 5 mins; format: ADME, organism-based; settings: in vivo
Bone [27] = test: Biodistribution in Sprague-Dawley rat bone at 70 uCi, iv after 15 mins; format: ADME, organism-based, Bone element; settings: in vivo, 0.25 h
Cerebellum [28] = test: Biodistribution in Sprague-Dawley rat cerebellum at 70 uCi, iv after 15 mins; format: ADME, organism-based; settings: in vivo, 0.25 h
Bone [29] = test: Biodistribution in Sprague-Dawley rat bone at 70 uCi, iv after 30 mins; format: ADME, organism-based, Bone element; settings: in vivo, 0.5 h
Heart [30] = test: Biodistribution in Sprague-Dawley rat heart at 70 uCi, iv after 15 mins; format: ADME, organism-based; settings: in vivo, 0.25 h
[31] = Metabolic stability in Sprague-Dawley rat plasma at 70 uCi, iv after 15 mins; format: ADME, organism-based; settings: read-out: Stability
Cortex [32] = test: Biodistribution in Sprague-Dawley rat rest of cortex at 70 uCi, iv after 15 mins; format: ADME, organism-based; settings: in vivo, 0.25 h
Hypothalamus [33] = test: Biodistribution in Sprague-Dawley rat hypothalamus at 70 uCi, iv after 30 mins; format: ADME, organism-based; settings: in vivo, 0.5 h
Bone [34] = test: Biodistribution in Sprague-Dawley rat bone at 70 uCi, iv after 5 mins; format: ADME, organism-based, Bone element; settings: in vivo
[35] = Metabolic stability in Sprague-Dawley rat plasma at 70 uCi, iv after 60 mins; format: ADME, organism-based; settings: read-out: Stability
Striatum [36] = test: Biodistribution in Sprague-Dawley rat striatum at 70 uCi, iv after 5 mins; format: ADME, organism-based; settings: in vivo
Thalamus [37] = test: Biodistribution in Sprague-Dawley rat thalamus at 70 uCi, iv after 30 mins; format: ADME, organism-based; settings: in vivo, 0.5 h
Brain [38] = test: Biodistribution in Sprague-Dawley rat rest of brain at 70 uCi, iv after 30 mins; format: ADME, organism-based; settings: in vivo, 0.5 h
Bone [39] = test: Biodistribution in Sprague-Dawley rat bone at 70 uCi, iv after 60 mins; format: ADME, organism-based, Bone element; settings: in vivo, 1 h
Cortex [40] = test: Biodistribution in Sprague-Dawley rat rest of cortex at 70 uCi, iv after 60 mins; format: ADME, organism-based; settings: in vivo, 1 h
[41] = Metabolic stability in Sprague-Dawley rat plasma at 70 uCi, iv after 30 mins; format: ADME, organism-based; settings: read-out: Stability
Brain [42] = test: Biodistribution in Sprague-Dawley rat rest of brain at 70 uCi, iv after 5 mins; format: ADME, organism-based; settings: in vivo
Thalamus [43] = test: Biodistribution in Sprague-Dawley rat thalamus at 70 uCi, iv after 60 mins; format: ADME, organism-based; settings: in vivo, 1 h
[44] = Metabolic stability in Sprague-Dawley rat plasma at 70 uCi, iv after 5 mins; format: ADME, organism-based; settings: read-out: Stability
Hippocampus [45] = test: Biodistribution in Sprague-Dawley rat hippocampus at 70 uCi, iv after 60 mins; format: ADME, organism-based; settings: in vivo, 1 h
Hippocampus [46] = test: Biodistribution in Sprague-Dawley rat hippocampus at 70 uCi, iv after 15 mins; format: ADME, organism-based; settings: in vivo, 0.25 h
[47] = Biodistribution in Sprague-Dawley rat frontal cortex at 70 uCi, iv after 60 mins; format: ADME, organism-based; settings: in vivo, 1 h
Hypothalamus [48] = test: Biodistribution in Sprague-Dawley rat hypothalamus at 70 uCi, iv after 5 mins; format: ADME, organism-based; settings: in vivo
Heart [49] = test: Biodistribution in Sprague-Dawley rat heart at 70 uCi, iv after 60 mins; format: ADME, organism-based; settings: in vivo, 1 h
[50] = target: Beta-1 adrenergic receptor (Homo sapiens, UniProt P08588); test: Binding affinity to beta-1 adrenergic receptor
[51] = target: Beta-2 adrenergic receptor (Homo sapiens, UniProt P07550); test: Binding affinity to beta2 adrenergic receptor
Beta-2 adrenergic receptor, sequence (P07550 whole entry): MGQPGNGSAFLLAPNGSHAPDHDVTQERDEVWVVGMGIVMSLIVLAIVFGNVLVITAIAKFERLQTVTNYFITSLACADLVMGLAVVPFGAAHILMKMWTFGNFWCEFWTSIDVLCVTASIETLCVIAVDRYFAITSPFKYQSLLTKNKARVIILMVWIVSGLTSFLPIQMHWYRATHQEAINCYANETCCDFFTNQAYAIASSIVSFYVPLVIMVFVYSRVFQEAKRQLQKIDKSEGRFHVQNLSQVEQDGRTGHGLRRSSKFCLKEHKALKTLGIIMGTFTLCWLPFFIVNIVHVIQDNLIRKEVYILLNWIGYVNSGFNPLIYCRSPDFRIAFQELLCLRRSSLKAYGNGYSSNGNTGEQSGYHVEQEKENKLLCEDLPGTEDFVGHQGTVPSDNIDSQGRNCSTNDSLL

Beta-1 adrenergic receptor, sequence (P08588 whole entry): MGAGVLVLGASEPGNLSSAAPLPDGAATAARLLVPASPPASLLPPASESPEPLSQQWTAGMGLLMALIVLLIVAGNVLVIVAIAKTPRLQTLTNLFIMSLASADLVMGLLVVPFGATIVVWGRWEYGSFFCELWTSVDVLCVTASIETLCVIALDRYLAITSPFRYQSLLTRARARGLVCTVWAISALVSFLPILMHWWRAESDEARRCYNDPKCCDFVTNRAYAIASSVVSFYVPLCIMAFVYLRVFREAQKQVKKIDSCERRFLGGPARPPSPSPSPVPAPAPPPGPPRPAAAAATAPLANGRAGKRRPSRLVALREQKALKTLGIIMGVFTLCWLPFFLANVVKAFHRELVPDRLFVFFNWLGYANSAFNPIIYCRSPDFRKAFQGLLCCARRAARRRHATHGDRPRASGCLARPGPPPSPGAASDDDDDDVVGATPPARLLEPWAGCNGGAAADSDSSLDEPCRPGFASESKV

SMILES: Cc1cccc(OC[11C@@H](O)CNC(C)C)c1
- logD [1]: 0.2

SMILES: Cc1cccc(OC[C@@H](O)CNC(C)C[18F])c1 (stereo partly drawn)
- Drug uptake (Hypothalamus [2]): 0.5 % ID/g
- Drug uptake (Plasma [3]): 0.13 % ID/g
- Drug uptake (Heart [4]): 0.59 % ID/g
- Drug uptake (Striatum [5]): 0.27 % ID/g
- Drug uptake (Thalamus [6]): 0.65 % ID/g
- Drug uptake (Plasma [7]): 0.13 % ID/g
- Drug uptake (Plasma [8]): 0.08 % ID/g
- Drug uptake (Hypothalamus [9]): 0.09 % ID/g
- Drug uptake (Cortex [10]): 0.29 % ID/g
- logD [1]: 1.68
- Drug uptake (Cerebellum [11]): 0.75 % ID/g
- Drug uptake (Cerebellum [12]): 0.08 % ID/g
- Drug uptake (Hippocampus [13]): 0.31 % ID/g
- Drug uptake (Cortex [14]): 1.12 % ID/g
- Drug uptake (Cerebellum [15]): 0.21 % ID/g
- Drug uptake (Plasma [16]): 0.16 % ID/g
- Drug uptake (Heart [17]): 0.15 % ID/g
- Drug uptake (Striatum [18]): 0.59 % ID/g
- Drug uptake [19]: 0.67 % ID/g
- Drug uptake [20]: 0.3 % ID/g
- Drug uptake (Brain [21]): 0.5 % ID/g
- Drug uptake [22]: 1.21 % ID/g
- Drug uptake (Brain [23]): 0.1 % ID/g
- Drug uptake (Thalamus [24]): 1.03 % ID/g
- Drug uptake (Striatum [25]): 0.11 % ID/g
- Drug uptake (Hippocampus [26]): 0.91 % ID/g
- Drug uptake (Bone [27]): 0.21 % ID/g
- Drug uptake (Cerebellum [28]): 0.46 % ID/g
- Drug uptake (Bone [29]): 0.18 % ID/g
- Drug uptake (Heart [30]): 0.26 % ID/g
- remaining at 0.25 h [31]: 28.6%
- Drug uptake (Cortex [32]): 0.62 % ID/g
- Drug uptake (Hypothalamus [33]): 0.22 % ID/g
- Drug uptake (Bone [34]): 0.18 % ID/g
- remaining at 1 h [35]: 11.9%
- Drug uptake (Striatum [36]): 0.97 % ID/g
- Drug uptake (Thalamus [37]): 0.29 % ID/g
- Drug uptake (Brain [38]): 0.24 % ID/g
- Drug uptake (Bone [39]): 0.18 % ID/g
- Drug uptake (Cortex [40]): 0.11 % ID/g
- remaining at 0.5 h [41]: 16.4%
- Drug uptake (Brain [42]): 0.84 % ID/g
- Drug uptake (Thalamus [43]): 0.11 % ID/g
- remaining at 5 min [44]: 59.2%
- Drug uptake (Hippocampus [45]): 0.12 % ID/g
- Drug uptake (Hippocampus [46]): 0.63 % ID/g
- Drug uptake [47]: 0.12 % ID/g
- Drug uptake (Hypothalamus [48]): 0.77 % ID/g
- Drug uptake (Heart [49]): 0.06 % ID/g

SMILES: Cc1cccc(OC[C@H](O)CNC(C)C[18F])c1 (stereo partly drawn)
- Drug uptake (Hypothalamus [2]): 0.46 % ID/g
- Drug uptake (Plasma [3]): 0.13 % ID/g
- Drug uptake (Heart [4]): 0.51 % ID/g
- Drug uptake (Striatum [5]): 0.26 % ID/g
- Drug uptake (Thalamus [6]): 0.62 % ID/g
- Drug uptake (Plasma [7]): 0.13 % ID/g
- Drug uptake (Plasma [8]): 0.07 % ID/g
- Drug uptake (Hypothalamus [9]): 0.09 % ID/g
- Drug uptake (Cortex [10]): 0.29 % ID/g
- logD [1]: 1.79
- Drug uptake (Cerebellum [11]): 0.82 % ID/g
- Drug uptake (Cerebellum [12]): 0.08 % ID/g
- Drug uptake (Hippocampus [13]): 0.31 % ID/g
- Drug uptake (Cortex [14]): 1.12 % ID/g
- Drug uptake (Cerebellum [15]): 0.23 % ID/g
- Drug uptake (Plasma [16]): 0.16 % ID/g
- Drug uptake (Heart [17]): 0.15 % ID/g
- Drug uptake (Striatum [18]): 0.54 % ID/g
- Drug uptake [19]: 0.59 % ID/g
- Drug uptake [20]: 0.29 % ID/g
- Drug uptake (Brain [21]): 0.47 % ID/g
- Drug uptake [22]: 1.3 % ID/g
- Drug uptake (Brain [23]): 0.1 % ID/g
- Drug uptake (Thalamus [24]): 1.19 % ID/g
- Drug uptake (Striatum [25]): 0.11 % ID/g
- Drug uptake (Hippocampus [26]): 1.01 % ID/g
- Drug uptake (Bone [27]): 0.22 % ID/g
- Drug uptake (Cerebellum [28]): 0.43 % ID/g
- Drug uptake (Bone [29]): 0.3 % ID/g
- Drug uptake (Heart [30]): 0.26 % ID/g
- remaining at 0.25 h [31]: 25.5%
- Drug uptake (Cortex [32]): 0.55 % ID/g
- Drug uptake (Hypothalamus [33]): 0.23 % ID/g
- Drug uptake (Bone [34]): 0.3 % ID/g
- remaining at 1 h [35]: 7.7%
- Drug uptake (Striatum [36]): 1.04 % ID/g
- Drug uptake (Thalamus [37]): 0.3 % ID/g
- Drug uptake (Brain [38]): 0.25 % ID/g
- Drug uptake (Bone [39]): 0.25 % ID/g
- Drug uptake (Cortex [40]): 0.11 % ID/g
- remaining at 0.5 h [41]: 12.6%
- Drug uptake (Brain [42]): 0.88 % ID/g
- Drug uptake (Thalamus [43]): 0.12 % ID/g
- remaining at 5 min [44]: 61.9%
- Drug uptake (Hippocampus [45]): 0.12 % ID/g
- Drug uptake (Hippocampus [46]): 0.6 % ID/g
- Drug uptake [47]: 0.12 % ID/g
- Drug uptake (Hypothalamus [48]): 0.92 % ID/g
- Drug uptake (Heart [49]): 0.07 % ID/g

SMILES: Cc1cccc(OC[C@@H](O)CNC(C)C)c1 [(S)-TOLIPROLOL]
- pKd [50]: 9.42
- pKd [51]: 8.92

SMILES: CC(C)NCC(O)COc1cccc2[nH]c3ccccc3c12 (stereo not drawn) [CARAZOLOL]
- logD [1]: 1.36

SMILES: CC(CF)NCC(O)COc1cccc2[nH]c3ccccc3c12 (stereo not drawn) [FLUOROCARAZOLOL]
- logD [1]: 2.2
